# Patent publication US20240270821A1, “GIP/GLP1/GCG TRI-RECEPTOR AGONISTS AND USES THEREOF” (priority 2023, published 2024)
# Read-outs that look alike come from different tables or passages of the source. Starred links: 1 amine or outer side, 2 acyl side, 3 side chain; linkers in the order of their positions; H or OH if unused. Non-standard residues stand in square brackets, D forms with d. Groups on a side chain read outwards from the residue. No end group written: not given here. *: point of attachment. C18 diacid = O=C(O)CCCCCCCCCCCCCCCCC(=O)*; γGlu = O=C(O)[C@H](CCC(=O)[*:2])N[*:1]; αMeL = CC(C)C[C@](C)(N)C(=O)O; Orn = NCCC[C@H](N)C(=O)O; AEEA = NCCOCCOCC(=O)O; Aib = CC(C)(N)C(=O)O
# Tests used:
# [1] = tested on: Intestinal organoid from Göttingen minipig jejunum tissue, 2D monolayer; experiment: Cell based in vitro permeability (Papp) assay; assay type: in vitro ADME
# Procedure: Intestinal organoid from Göttingen minipig jejunum tissue and its 2D monolayer are generated using the protocol previously described ([…]-Thiele, […].; Wells, J. M., Optimized procedures for generating an enhanced, near physiological 2D culture system from porcine intestinal organoids. […] After 7 days of culture, organoids are dissociated into single cells by TrypLE (GIbco), and the single cell suspension is added in 24-well transparent transwell inserts (0.3 cm^2, Falcon, BD). […] Samples from the basal compartment are collected at 20 min in the presence of C10. Peptide concentrations in the apical and basal compartments are measured by LC/MS, and the apparent permeability coefficient (Papp) is calculated as previously described (Twarog, C.; Liu, K.; O'Brien, P. J.; Dawson, […] head-to-head Caco-2 assay comparison of the mechanisms of action of the intestinal permeation enhancers: SNAC and sodium caprate (C10).
# [2] = target: T1, hGIPR (Homo sapiens, UniProt P48546); experiment: Functional cAMP activity in the presence of 1% HSA; assay type: cell-based; settings: read-out: cAMP Rel EC50, hGIPR
# T1 sequence (P48546 22-466): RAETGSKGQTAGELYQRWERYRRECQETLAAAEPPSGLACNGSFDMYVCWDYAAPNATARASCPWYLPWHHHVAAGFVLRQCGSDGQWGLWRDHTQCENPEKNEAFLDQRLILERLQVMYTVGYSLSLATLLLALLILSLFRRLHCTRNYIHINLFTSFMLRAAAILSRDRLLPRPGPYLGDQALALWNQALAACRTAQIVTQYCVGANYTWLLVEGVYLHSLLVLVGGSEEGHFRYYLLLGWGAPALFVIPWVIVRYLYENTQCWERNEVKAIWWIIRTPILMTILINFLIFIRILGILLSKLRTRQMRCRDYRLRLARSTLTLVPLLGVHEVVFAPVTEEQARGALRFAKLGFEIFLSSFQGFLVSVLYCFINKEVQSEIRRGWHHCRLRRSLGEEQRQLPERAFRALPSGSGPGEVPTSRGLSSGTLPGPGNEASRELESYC
# [3] = target: T2, hGLP-1R (Homo sapiens, UniProt P43220); experiment: Functional cAMP activity in the presence of 1% HSA; assay type: cell-based; settings: read-out: cAMP Rel EC50, hGLP-1R
# [4] = target: human GcgR (Homo sapiens, UniProt P47871); experiment: Functional cAMP activity in the presence of 1% HSA; assay type: cell-based; settings: read-out: cAMP Rel EC50, hGcgR
# [5] = target: T1, hGIPR; experiment: Functional cAMP activation in the presence of 0.1% casein (no HSA); assay type: cell-based; settings: read-out: Relative cAMP EC50, hGIPR;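 for Relative cAMP EC50, hGIPR: intracellular cAMP rise after 30 min at 37 °C read by HTRF against a standard curve, scaled between buffer alone (0%) and top control ligand concentration (100%), four-parameter fit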;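 for Relative cAMP EC50, hGLP-1R: intracellular cAMP rise after 30 min at 37 °C read by HTRF, normalized between buffer only (0%) and maximal control ligand (100%), four-parameter variable-slope fit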;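 for Relative cAMP EC50, hGcgR: intracellular cAMP rise after 30 min at 37 °C, read by HTRF against a cAMP standard curve, scaled from buffer only (0%) to maximal control ligand response (100%)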
# [6] = target: T2, hGLP-1R; experiment: as above; assay type: cell-based; settings: read-out: Relative cAMP EC50, hGLP-1R
# [7] = target: hGcgR (Homo sapiens, UniProt P47871); experiment: as above; assay type: cell-based; settings: read-out: Relative cAMP EC50, hGcgR;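 note: intracellular cAMP rise after 30 min at 37 °C, read by HTRF against a cAMP standard curve, scaled from buffer only (0%) to maximal control ligand response (100%)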
# [8] = in the presence of 0.1% casein (no HSA), geometric mean
# T2 sequence (P43220 24-463): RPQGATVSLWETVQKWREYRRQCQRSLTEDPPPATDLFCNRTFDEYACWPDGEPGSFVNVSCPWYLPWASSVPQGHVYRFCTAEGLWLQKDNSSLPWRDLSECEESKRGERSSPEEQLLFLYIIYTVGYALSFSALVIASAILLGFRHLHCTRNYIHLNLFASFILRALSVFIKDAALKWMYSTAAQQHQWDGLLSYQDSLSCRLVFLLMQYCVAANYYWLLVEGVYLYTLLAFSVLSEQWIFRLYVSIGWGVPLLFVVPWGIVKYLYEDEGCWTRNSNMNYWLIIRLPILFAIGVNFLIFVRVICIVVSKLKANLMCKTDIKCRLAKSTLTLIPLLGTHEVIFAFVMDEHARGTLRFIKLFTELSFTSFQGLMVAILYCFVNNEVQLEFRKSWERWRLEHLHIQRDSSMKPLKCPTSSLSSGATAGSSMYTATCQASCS
# Sequence of human GcgR (P47871 26-477): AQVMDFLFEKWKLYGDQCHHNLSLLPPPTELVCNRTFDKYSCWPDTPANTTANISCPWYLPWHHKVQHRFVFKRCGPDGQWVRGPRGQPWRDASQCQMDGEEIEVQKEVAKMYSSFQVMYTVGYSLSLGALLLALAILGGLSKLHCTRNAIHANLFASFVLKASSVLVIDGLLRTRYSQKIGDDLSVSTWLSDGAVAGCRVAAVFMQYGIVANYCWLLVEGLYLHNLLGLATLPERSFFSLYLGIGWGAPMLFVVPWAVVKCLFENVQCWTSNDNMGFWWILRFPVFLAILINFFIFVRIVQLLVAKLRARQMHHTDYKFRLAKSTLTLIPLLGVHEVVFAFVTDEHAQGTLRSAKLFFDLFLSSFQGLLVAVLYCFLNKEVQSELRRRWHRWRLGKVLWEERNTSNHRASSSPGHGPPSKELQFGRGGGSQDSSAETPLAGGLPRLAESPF
# Sequence of hGcgR (P47871 26-477): as above
EC50 [5],EC50 [6],EC50 [7],Molecule,Relative Papp (Compared to internal standard) [1],EC50 [2],EC50 [3],EC50 [4],"EC50 [5, 8]","EC50 [6, 8]","EC50 [7, 8]"
–,–,–,CC[C@H](C)[C@H](NC(=O)[C@H](Cc1ccccc1)NC(=O)[C@H](C)NC(=O)C(C)(C)NC(=O)[C@H](CCC(N)=O)NC(=O)[C@H](C)NC(=O)[C@H](CCCCNC(=O)COCCOCCNC(=O)CC[C@H](NC(=O)CCCCCCCCCCCCCCCCC(=O)O)C(=O)O)NC(=O)[C@H](CCCCN)NC(=O)[C@H](CC(=O)O)NC(=O)[C@H](CC(C)C)NC(=O)[C@](C)(CC(C)C)NC(=O)[C@H](CCCN)NC(=O)[C@H](CO)NC(=O)[C@H](Cc1ccccc1)NC(=O)[C@H](CC(=O)O)NC(=O)[C@H](CO)NC(=O)[C@@H](NC(=O)[C@H](Cc1ccccc1)NC(=O)[C@@H](NC(=O)CNC(=O)[C@H](CCC(N)=O)NC(=O)C(C)(C)NC(=O)[C@@H](N)Cc1ccc(O)cc1)[C@@H](C)O)[C@@H](C)O)C(=O)N[C@@H](CCC(=O)O)C(=O)N[C@@H](Cc1c[nH]c2ccccc12)C(=O)N[C@@H](CC(C)C)C(=O)N[C@@H](CC(C)C)C(=O)N[C@@H](CCC(=O)O)C(=O)NCC(=O)NCC(=O)N1CCC[C@H]1C(=O)N[C@@H](CO)C(=O)N[C@@H](CO)C(=O)NCC(=O)N[C@@H](C)C(=O)N1CCC[C@H]1C(=O)N1C[C@H](O)C[C@H]1C(=O)N1CCC[C@H]1C(=O)N[C@@H](CO)C(=O)NCC(=O)N[C@@H](CCC(=O)O)C(N)=O [Example 137],0.04,–,–,–,–,–,–
–,–,–,CC[C@H](C)[C@H](NC(=O)[C@H](Cc1ccccc1)NC(=O)[C@H](C)NC(=O)C(C)(C)NC(=O)[C@H](CCC(N)=O)NC(=O)[C@H](C)NC(=O)[C@H](CCCCNC(=O)COCCOCCNC(=O)CC[C@H](NC(=O)CCCCCCCCCCCCCCCCC(=O)O)C(=O)O)NC(=O)[C@H](CCCCN)NC(=O)[C@H](CC(=O)O)NC(=O)[C@H](CC(C)C)NC(=O)[C@](C)(CC(C)C)NC(=O)[C@H](CCCN)NC(=O)[C@H](CO)NC(=O)[C@H](Cc1ccccc1)NC(=O)[C@H](CC(=O)O)NC(=O)[C@H](CO)NC(=O)[C@@H](NC(=O)[C@H](Cc1ccccc1)NC(=O)[C@@H](NC(=O)CNC(=O)[C@H](CCC(N)=O)NC(=O)C(C)(C)NC(=O)[C@@H](N)Cc1ccc(O)cc1)[C@@H](C)O)[C@@H](C)O)C(=O)N[C@@H](CCC(=O)O)C(=O)N[C@@H](Cc1ccc(O)cc1)C(=O)N[C@@H](CC(C)C)C(=O)N[C@@H](CC(C)C)C(=O)N[C@@H](CCC(=O)O)C(=O)N[C@H](C)C(=O)NCC(=O)N1CCC[C@H]1C(=O)N[C@@H](CO)C(=O)N[C@@H](CO)C(=O)NCC(=O)N[C@@H](C)C(=O)N1CCC[C@H]1C(=O)N1CCC[C@H]1C(=O)N1CCC[C@H]1C(=O)N[C@@H](CO)C(=O)NCC(=O)N[C@H](C(=O)O)[C@@H](C)O [Example 213],0.26,–,–,–,–,–,–
0.0338 nM,0.53 nM,5.06 nM,CC[C@H](C)[C@H](NC(=O)[C@H](Cc1ccccc1)NC(=O)[C@H](CCCN)NC(=O)C(C)(C)NC(=O)[C@H](CCC(N)=O)NC(=O)[C@H](C)NC(=O)[C@H](CCCCNC(=O)[C@@H](CCC(=O)O)NC(=O)CC[C@H](NC(=O)CCCCCCCCCCCCCCCCC(=O)O)C(=O)O)NC(=O)[C@H](CCCN)NC(=O)[C@H](CC(=O)O)NC(=O)[C@H](CC(C)C)NC(=O)[C@](C)(CC(C)C)NC(=O)[C@@H](NC(=O)[C@](C)(CO)NC(=O)[C@H](Cc1ccncc1)NC(=O)[C@H](CC(=O)O)NC(=O)[C@H](CO)NC(=O)[C@@H](NC(=O)[C@](C)(Cc1ccccc1F)NC(=O)[C@@H](NC(=O)CNC(=O)[C@H](CCC(N)=O)NC(=O)C(C)(C)NC(=O)[C@@H](N)Cc1ccc(O)cc1)[C@@H](C)O)[C@@H](C)O)[C@@H](C)CC)C(=O)N[C@H](CCC(=O)O)C(=O)N[C@@](C)(Cc1ccc(O)cc1)C(=O)N[C@@H](CC(C)C)C(=O)N[C@@H](CCC(N)=O)C(=O)N[C@@H](CCC(=O)O)C(=O)NCC(=O)NCC(=O)N1CCC[C@H]1C(=O)N[C@@H](CO)C(=O)N[C@@H](CO)C(=O)NCC(=O)N[C@@H](CCC(=O)O)C(=O)N1CCC[C@H]1C(=O)N1CCC[C@H]1C(=O)N1CCC[C@H]1C(=O)N[C@@H](CCC(=O)O)C(=O)NCC(=O)N[C@H](C(=O)N[C@@H](CCC(=O)O)C(=O)N[C@@H](CCC(=O)O)C(N)=O)[C@@H](C)O [Example 595],0.55,1.73 nM,30.4 nM,353 nM,–,–,–
–,–,–,H-Y[Aib]QGTFTSDFS[Orn][αMeL]LDKK([AEEA-AEEA-γGlu-C18 diacid])AQ[Aib]AFIEYLLE[Aib]GHSSGAPPPSGT-NH2 [Example 182],0.12,9.95 nM,398 nM,1480 nM,0.0781 nM,4.8 nM,5.33 nM
–,–,–,H-Y[Aib]QGTFTSDFS[Orn][αMeL]LDKK([AEEA-γGlu-C18 diacid])AQ[Aib]AFIEYLLEGGPSSGAPPPEGS-NH2 [Example 130],0.06,60.5 nM,865 nM,1080 nM,0.411 nM,4.29 nM,3.74 nM
–,–,–,H-Y[Aib]QGTFTSDFS[Orn][αMeL]LDKK([AEEA-γGlu-C18 diacid])AQ[Aib]AFIEYLLE[dA]GPSSGAPPPSGS [Example 212],0.22,–,–,–,–,–,–
